Results on 8 compounds are retold here after patent US9174998B2, “(6S,9aS)-N-benzyl-6-[(4-hydroxyphenyl)methyl]-4,7-dioxo-8-({6-[3-(piperazin-1-yl)azetidin-1-yl]pyridin-2-yl}methyl)-2-(prop-2-en-1-yl)-octahydro-1H-pyrazino[2,1-c][1,2,4]triazine-1-carboxamide compound” (Eisai R&D Management Co., Ltd., priority 2013, dated 2015).

A short description of data set [1]: Evaluation of metabolic stability. Type of data set: in vitro ADME, human. The conditions noted are these: 0.2 mg/mL HLM, 0.1 μM test substance, 15 minutes at 37° C., with vs without NADPH production. The method, then: A test substance was dissolved in DMSO so that the concentration of the resultant solution became 20 mM, and the solution was diluted with DMSO so that the concentration of the resultant solution became 1 mM. The metabolic stability of the test substance was evaluated using a human liver microsome (HLM) in which human liver was pooled. An assay buffer solution contained 0.2 mg/mL of HLM, a 0.1 M of phosphate potassium buffer solution (pH 7.4), 0.1 mM of EDTA, 0.33 mM of NADP+, 8 mM of glucose-6-phosphate, 0.1 U/mL of glucose-6-phosphate dehydrogenase, 6 mM of MgCl2, 0.1 μM of a test substance (final concentration in DMSO: 0.01%) in 0.15 mL of the final incubation volume. Fifteen minutes after the initiation of the reaction at 37° C., 0.15 mL of a acetonitrile/methanol mixed solution (7:3, by volume) was added to the solution to terminate the reaction. After centrifugation, the resultant supernatant was analyzed by LC-MSMS, peak areas were compared under the presence or absence of the production of NADPH, and the residual ratio of the test substance was calculated.

A short description of data set [2]: PAMPA test (parallel artificial membrane permeability assay). Type of data set: in vitro ADME. Particulars: phosphate buffer pH 6.8, about 200 μM, about 5 hours, room temperature, read-out: Test Example 4 membrane permeation coefficient Pe. The method, then:
A test solution (see below) was stirred while shaking at room temperature for about 5 hours using a 96-well PAMPA plate (BD Biosciences) in which a lipid had been precoated onto a polyvinylidene fluoride (PVDF) film to evaluate the membrane permeation coefficient Pe (cm/s) of each compound dissolved in the test solution (concentration: about 200 μM) upon the transport of the compound from a donor side to an acceptor side through a lipid membrane. The Pe value was calculated in accordance with equations 1 and 2, and the concentration of the compound on the donor side and the acceptor side was measured by a HPLC-UV method. In 0.3 mL of the test solution on the donor side is contained about 1% (v/v) of DMSO, since 3 μL of a DMSO solution containing the compound at a concentration of 20 mM was added to the test solution.
Test solution: a phosphate buffer solution having a pH value of 6.8 (90 mM of phosphate, 48 mM of NaCl, 5.4 mM of KCl)
Conditions for stirring: a multishaker MS-300 (AS ONE Corporation), 350 rpm
[formula] CD(t): compound concentration in donor well at time t CA(t): compound concentration in acceptor well at time t VD: donor well volume (0.3 mL) VA: acceptor well volume (0.2 mL) A: filter area (0.3 cm^2)
(In PAMPA a lipid-coated filter parts donor from acceptor wells.)

Data set [3] in a line: Evaluation of solubility (DMSO stock into PBS, HPLC-UV). Type of data set: physicochemical. The conditions noted are these: Dulbecco's phosphate-buffered saline pH 7, room temperature, about 15 minutes shaking, values greater than 200 μM regarded as 200 μM, read-out: Test Example 3 solubility. The method, then:
To 0.25 mL of a test solution a mentioned below was added 2.5 μL of a DMSO solution having a compound concentration of 20 mM. The resultant solution was shaken at room temperature for about 15 minutes (the conditions for the shaking are mentioned below). Subsequently, a supernatant was collected by a suction filtration under a reduced pressure. A DMSO solution having a compound concentration of 200 μM was used as a standard solution, and the concentration of a compound in a filtrate which was quantified by a HPLC-UV method was employed as a solubility (rounded off to the whole number). In this evaluation, since a value 200 μM became the upper limit operationally, all of quantification values greater than 200 μM were regarded as 200 μM.
Test solution: GIBCO (registered trade name) Dulbecco's phosphate-buffered saline (pH 7, Life Technologies Corporation)
Conditions for shaking: a microplate shaker N-704 (Nissinrika Corporation), speed 6

The test system of a further data set is Wnt signal. Nature of the data set: Detection of Wnt signal (TOPglow luciferase reporter, LiCl-stimulated). Type of data set: cell-based. The conditions noted are these: Homo sapiens; HEK293 clone carrying pNeo-TOP reporter; LiCl stimulation; luciferase luminescence; read-out: Test Example 1 IC50 (concentration required for inhibiting the Wnt signal activity by 50%). The method, then: pcDNA3.1(+) (invitrogen) was cleaved with restriction enzymes BglII and NotI, and an adapter BEHKS having a sequence shown below (containing restriction enzyme sites BglII, EcoRI, HindIII, KpnI, SacI and NotI) was inserted thereinto, thereby producing a plasmid pNeo-HKS.
Subsequently, a fragment having a length of about 2700 bp (containing a Wnt-responsive sequence and a luciferase gene), which was prepared by cleaving from a TOPglow plasmid contained in a TOPglow/FOPglow TCF Reporter Kit (upstate Catalog#17-366) with restriction enzymes HindIII and KpnI, was inserted between HindIII and KpnI in pNeo-HKS, thereby producing a plasmid pNeo-TOP. The plasmid pNeo-TOP was introduced into human fetus-derived renal cell strain HEK293, then a compound was selected using G418, and then a cell clone strain was established by a limiting dilution method. The cell clone strain was subjected to a Wnt signal detection test.
The cell clone strain was subcultured in a D-MEM glucose-rich culture medium (Wako Pure Chemical Industries, Ltd.) containing 10% FBS, and cells in a growth phase were used in the test. Cells were collected using trypsin-EDTA, the number of the cells was counted, and then the cells were suspended in a D-MEM glucose-rich culture medium containing 10% FBS so that the number of cells became 2×10^5 cells/mL. The cell suspension was added to a 96-well cell culture plate (Greiner Bio-One Co., Ltd., product number: 655083) in an amount of 0.1 mL/well and then cultured overnight in a 5% CO2 incubator (37° C.). After the culturing, a substance to be tested, which was dissolved in DMSO, was diluted with a D-MEM glucose-rich culture medium containing 10% of FBS and 80 mM of LiCl to produce a sample solution. The sample solution (0.1 mL) was added to each well and then cultured in a 5% CO2 incubator (37° C.) […]. Six hours after the addition of the sample solution, a supernatant was removed from each well, and then 50 μL of Bright-Glo™ Luciferase substrate (Promega, product number: E2620) was added thereto. The plate was put on a plate mixer for several seconds, and then the emission of light from each well was measured using a EnVision™ Multilabel plate reader (PerkinElmer Co., Ltd.). The Wnt signal activation rate (%) of each well was determined, and a concentration (IC50) which is required for inhibiting the Wnt signal activity of a substance of interest by 50% was calculated, wherein the luminosity of a well to which a sample solution was not added and LiCl was added was defined as a 100% Wnt signal activity and the luminosity of a well to which either of a sample solution or LiCl was not added was defined as a 0% Wnt signal activity.
A general note: Reporter assays use an easily measured gene product as a stand-in for the process of interest.

Where [4] appears, read: aqueous buffer, kinetic from dmso stock.

SMILES strings stand for the structures. In brackets after ≈: the same amount, converted by molar mass. Where two headings read alike, the source gives them in different places.

Consider `C=CCN1CC(=O)N2[C@@H](Cc3c(F)cc(O)cc3F)C(=O)N(Cc3cccc(N4CC(N5CCN(CC)CC5)C4)n3)C[C@@H]2N1C(=O)NCc1ccccc1` [Example 13, (6S,9aS)-N-Benzyl-6-((2,6-difluoro-4-hydroxyphenyl)methyl)-8-((6-(3-(4-ethylpiperazin-1-yl)azetidin-1-yl)pyridin-2-yl)methyl)-4,7-dioxo-2-(prop-2-en-1-yl)-octahydro-1H-pyrazino[2,1-c][1,2,4]triazine-1-carboxamide], for which, in data set [1], the “Test Example 2 residual ratio of the test substance” value (shortened to “Test Example 2 residual ratio”) was 56%. Also, in data set [2], the Papp was 0.52 ×10⁻⁶ cm/s. Also, in data set [3], the solubility (commonly the dissolved amount per volume that the medium holds) turned out to be 200 µM (≈ 149 µg/mL). Further, the IC50 in the data set with Wnt signal stood at 140 nM.
As to `C=CCN1CC(=O)N2[C@@H](Cc3c(F)cc(O)cc3F)C(=O)N(Cc3cccc(N4CC(N5CCN(C)CC5)C4)n3)C[C@@H]2N1C(=O)NCc1ccccc1` [Example 14, (6S,9aS)-N-Benzyl-6-((2,6-difluoro-4-hydroxyphenyl)methyl)-8-((6-(3-(4-methylpiperazin-1-yl)azetidin-1-yl)pyridin-2-yl)methyl)-4,7-dioxo-2-(prop-2-en-1-yl)-octahydro-1H-pyrazino[2,1-c][1,2,4]triazine-1-carboxamide], the “Test Example 2 residual ratio” value in data set [1] is recorded as 69%. Further, the Papp in data set [2] was determined as 0.39 ×10⁻⁶ cm/s. In data set [3] (setting [4]), the solubility came out at 197 µM (≈ 144 µg/mL). For the same compound, the IC50 in the data set on Wnt signal stood at 270 nM.
The corresponding values for `C=CCN1CC(=O)N2[C@@H](Cc3ccc(O)cc3F)C(=O)N(Cc3cccc(N4CC(N5CCN(C)C[C@@H]5C)C4)n3)C[C@@H]2N1C(=O)NCc1ccccc1` [Example 15, (6S,9aS)-N-Benzyl-8-((6-(3-((2S)-2,4-dimethylpiperazin-1-yl)azetidin-1-yl)pyridin-2-yl)methyl)-6-((2-fluoro-4-hydroxyphenyl)methyl)-4,7-dioxo-2-(prop-2-en-1-yl)-octahydro-1H-pyrazino[2,1-c][1,2,4]triazine-1-carboxamide] are 45%, 2.38 ×10⁻⁶ cm/s, 195 µM (≈ 142 µg/mL) and 75 nM.
In the same order, the values of `C=CCN1CC(=O)N2[C@@H](Cc3c(F)cc(O)cc3F)C(=O)N(Cc3cccc(N4CC(N5CCN(C)[C@@H](C)C5)C4)n3)C[C@@H]2N1C(=O)NCc1ccccc1` [Example 16, (6S,9aS)-N-Benzyl-6-((2,6-difluoro-4-hydroxyphenyl)methyl)-8-((6-(3-((3S)-3,4-dimethylpiperazin-1-yl)azetidin-1-yl)pyridin-2-yl)methyl)-4,7-dioxo-2-(prop-2-en-1-yl)-octahydro-1H-pyrazino[2,1-c][1,2,4]triazine-1-carboxamide] are 63%, 0.51 ×10⁻⁶ cm/s, 197 µM (≈ 147 µg/mL) and 220 nM.
The corresponding values for `C=CCN1CC(=O)N2[C@@H](Cc3c(F)cc(O)cc3F)C(=O)N(Cc3cccc(N4CC(N5CCN(C)C[C@@H]5C)C4)n3)C[C@@H]2N1C(=O)NCc1ccccc1` [Example 17, (6S,9aS)-N-Benzyl-6-((2,6-difluoro-4-hydroxyphenyl)methyl)-8-((6-(3-((2S)-2,4-dimethylpiperazin-1-yl)azetidin-1-yl)pyridin-2-yl)methyl)-4,7-dioxo-2-(prop-2-en-1-yl)-octahydro-1H-pyrazino[2,1-c][1,2,4]triazine-1-carboxamide] are 60%, 0.89 ×10⁻⁶ cm/s, 195 µM (≈ 145 µg/mL) and 210 nM.
Turning to `C=CCN1CC(=O)N2[C@@H](Cc3ccc(O)cc3)C(=O)N(Cc3cccc(N4CC(N5CCN(CC)[C@@H](C)C5)C4)n3)C[C@@H]2N1C(=O)NCc1ccccc1` [Example 18, (6S,9aS)-N-Benzyl-8-((6-(3-((3S)-4-ethyl-3-methylpiperazin-1-yl)azetidin-1-yl)pyridin-2-yl)methyl)-6-((4-hydroxyphenyl)methyl)-4,7-dioxo-2-(prop-2-en-1-yl)-octahydro-1H-pyrazino[2,1-c][1,2,4]triazine-1-carboxamide], the “Test Example 2 residual ratio” value in data set [1] amounted to 37%. Also, the Papp in data set [2] was 1.13 ×10⁻⁶ cm/s. The solubility in data set [3] was determined as 200 µM (≈ 144 µg/mL). Besides, the IC50 in the data set with Wnt signal is 320 nM.
In the case of `C=CCN1CC(=O)N2C(CN(Cc3cccc(N4CC(N5CCN(CC)[C@H](C)C5)C4)n3)C(=O)[C@@H]2Cc2ccc(O)cc2)N1C(=O)NCc1ccccc1` (stereo partly drawn) [Example 19, (6S,9aS)-N-Benzyl-8-((6-3-((3R)-4-ethyl-3-methylpiperazin-1-yl)azetidin-1-yl)pyridin-2-yl)methyl-6-((4-hydroxyphenyl)methyl)-4,7-dioxo-2-(prop-2-en-1-yl)-octahydro-1H-pyrazino[2,1-c][1,2,4]triazine-1-carboxamide], the “Test Example 2 residual ratio” value in data set [1] is on record as 30%. Further, the Papp in data set [2] was found to be 0.91 ×10⁻⁶ cm/s. The solubility in data set [3] was 200 µM (≈ 144 µg/mL). Moreover, the IC50 in the data set on Wnt signal worked out at 230 nM.
`C=CCN1CC(=O)N2[C@@H](Cc3ccc(O)cc3F)C(=O)N(Cc3cccc(N4CC(N5CCN(CC)[C@@H](C)C5)C4)n3)C[C@@H]2N1C(=O)NCc1ccccc1` [Example 20, (6S,9aS)-N-Benzyl-8-((6-(3-((3S)-4-ethyl-3-methylpiperazin-1-yl)azetidin-1-yl)pyridin-2-yl)methyl)-6-((2-fluoro-4-hydroxyphenyl)methyl)-4,7-dioxo-2-(prop-2-en-1-yl)-octahydro-1H-pyrazino[2,1-c][1,2,4]triazine-1-carboxamide]: the “Test Example 2 residual ratio” value in data set [1] is recorded as 23%. The Papp in data set [2] came to 2.17 ×10⁻⁶ cm/s. The solubility in data set [3] (setting [4]) came out at 197 µM (≈ 146 µg/mL). The IC50 in the data set with Wnt signal came out at 61 nM.
